What was measured:
[1] = absolute recovery over vacuum-assisted evaporative concentration; higher = better recovery; settings: enrichment method: VEC
Summary of the method: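 Samples of influent (6 mL), effluent (15 mL) and surface or nanopure water (60 mL) were spiked with standards before or after concentration, or left unspiked, at 200 ng/L (nanopure/surface) or 1000 ng/L (wastewater), adjusted by class and compound. Concentration was by evaporation at 55 °C and 20 mbar to about 0.3 mL, followed by adjustment to 0.4 mL and centrifugation. Internal standards were then added for LC-HRMS/MS analysis. Absolute recovery was (response ratio pre − unspiked)/(post − unspiked) × 100, using averages of ≥ 2 replicates.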

[2] = absolute recovery over mixed-bed multilayer solid-phase extraction; higher = better recovery; settings: enrichment method: SPE
Summary of the method: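 Absolute recovery was calculated by comparing background-corrected response ratios of samples spiked before extraction with those spiked after it, averaged over at least two replicates. Wastewater (100–250 mL, adjusted to pH 6.5 and glass-fibre filtered) or 1000 mL of unfiltered nanopure water was passed through a three-layer mixed-bed cartridge and eluted with basic and then acidic ethyl acetate/methanol. Standards were added before extraction, after extraction, or not at all, at 200 ng/L in water or 1000 ng/L in wastewater, with exceptions for some classes. Internal standards were added afterwards, and samples were analysed by liquid chromatography with high-resolution tandem mass spectrometry in both ionisation modes.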

[3] = LC retention time (Atlantis T3, 5-95% MeOH gradient, 0.1% formic acid); higher = more retained / less polar
Summary of the method: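 Retention times were recorded for reference standards on a polar reversed-phase C18 column. The standards were of purity ≥ 95%, and the Atlantis T3 column (3 × 150 mm, 3 μm) was run at 0.3 mL/min with a gradient from 5 to 95% methanol over 17.5 min, both water and methanol containing 0.1% formic acid. Detection used high-resolution tandem mass spectrometry on a QExactive Plus, with positive and negative electrospray in separate runs, and peaks were integrated in TraceFinder (5 ppm tolerance, at least three points per peak) before being checked by hand.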

| absolute recovery ([1]; wastewater effluent) [%] | absolute recovery ([1]; wastewater influent) [%] | absolute recovery ([2]; nanopure water) [%] | absolute recovery ([2]; surface water) [%] | absolute recovery ([2]; wastewater effluent) [%] | absolute recovery ([2]; wastewater influent) [%] | LC retention time [3] [min] | SMILES |
| --- | --- | --- | --- | --- | --- | --- | --- |
| 103 | 100 | 92.3 | 90.5 | 92 | 99.5 | 14.9 | CC(=O)NCC1CN(c2ccc(N3CCOCC3)c(F)c2)C(=O)O1 (stereo not drawn) [Linezolid] |
| 124 | 96.5 | 10.3 | 3.8 | 4.2 | 6.4 | 3.46 | Nc1ccc(S(=O)(=O)[O-])cc1 [Sulfanilic-acid] |
| 97 | 106 | 93.9 | 96.8 | 92.6 | 88 | 16.8 | NC1=C(Cl)C(=O)c2ccccc2C1=O [Quinoclamine] |
| 103 | 103 | 100 | 97.7 | 96.3 | 84.9 | 16.7 | COc1cc(OC)n2nc([N-]S(=O)(=O)c3c(C(F)(F)F)ccnc3OC)nc2n1 [Pyroxsulam] |
| 101 | 102 | 98.3 | 100 | 96.4 | 94.9 | 18 | NC(=O)Nc1ccc(Cl)c(Cl)c1 [Diuron-desdimethyl (=1-(3-4-Dichlorophenyl)urea)] |
| 101 | 109 | 96.2 | 91.2 | 94.4 | 90.7 | 17.7 | CSc1nc(=O)c(C(C)(C)C)n[n-]1 [Metribuzin-Desamino (=DA)] |
| 97.3 | 99.1 | 69.1 | 68.7 | 67.6 | 80.7 | 13.2 | Cc1cccc(C)c1OCC(C)[NH3+] (stereo not drawn) [Mexiletine] |
| 104 | 103 | 92 | 93.1 | 90.3 | 93.7 | 13.9 | CCCC[NH+]1CCCCC1C(=O)Nc1c(C)cccc1C (stereo not drawn) [Bupivacaine] |
| 105 | 107 | 78.4 | 82.4 | 85.9 | 87.2 | 13.4 | C=CCOc1ccccc1OCC(O)C[NH2+]C(C)C (stereo not drawn) [Oxprenolol] |
| 102 | 96.6 | 74.6 | 87 | 79.7 | 94.5 | 15.5 | C[NH2+]CCC(Oc1ccccc1C)c1ccccc1 (stereo not drawn) [Atomoxetin] |
| 102 | 107 | 93.7 | 94.9 | 93.8 | 93.9 | 12.7 | NC(=O)c1c(Cl)cccc1Cl [2-6-Dichlorbenzamid] |
| 96.4 | 70.3 | 86.9 | 21.3 | 49.2 | 66.1 | 11.8 | Cc1cc(N(C2OC(C(=O)[O-])C(O)C(O)C2O)S(=O)(=O)c2ccc(N)cc2)no1 (stereo not drawn) [Sulfamethoxazole-N1-Glucuronide] |
| 89.2 | 81.8 | 91.9 | 91.3 | 93.8 | 95.2 | 17.2 | COC(=O)C(Cc1ccccc1)NC(=O)C(CC(=O)[O-])[NH2+]CCC(C)(C)C (stereo not drawn) [Neotam] |
| 103 | 96.1 | 97.1 | 93.4 | 93.6 | 94.2 | 14.6 | CCCCc1[nH+]cc(C=C(Cc2cccs2)C(=O)[O-])n1Cc1ccc(C(=O)[O-])cc1 [Eprosartan] |
| 104 | 99.2 |  | 92.6 | 97.9 | 94.4 | 17.6 | O=C([O-])c1cc(Br)c([O-])c(Br)c1 [3-5-Dibromo-4-hydroxybenzoic-acid] |
| 93.2 | 86.2 | 86.9 | 89.1 | 83.2 | 96.5 | 18.4 | CCN(CC)C(=O)c1cccc(C)c1 [N-N-diethyl-3-methylbenzamid (=DEET)] |
| 98.4 | 112 | 90.8 |  |  |  | 17 | O=C1NC(=O)C(c2ccccc2)(c2ccccc2)N1 [Phenytoin] |
| 106 | 103 | 82.7 | 83.1 | 86.3 | 83.9 | 12.3 | CC(C)(C)[NH2+]CC(O)COc1nsnc1N1CCOCC1 (stereo not drawn) [Timolol] |

The next lines start with the molecule.

| SMILES | absolute recovery ([1]; wastewater effluent) [%] | absolute recovery ([1]; wastewater influent) [%] | absolute recovery ([2]; nanopure water) [%] | absolute recovery ([2]; surface water) [%] | absolute recovery ([2]; wastewater effluent) [%] | absolute recovery ([2]; wastewater influent) [%] | LC retention time [3] [min] |
| --- | --- | --- | --- | --- | --- | --- | --- |
| COc1nn(CSP(=S)(OC)OC)c(=O)s1 [Methidathion] | 108 | 106 | 102 | 97.9 | 96.5 | 88.2 | 18.8 |
| Cc1cc(C2CC2)nc(Nc2ccccc2)n1 [Cyprodinil] | 86.9 | 88.2 | 100 | 93.8 | 92.5 | 89.9 | 19.8 |
| COc1ccc(C(C[NH+](C)C)C2(O)CCCCC2)cc1 (stereo not drawn) [Venlafaxin] | 106 | 100 | 95.3 | 96.8 | 93.3 | 99.1 | 14 |
| [NH3+]CC1(CC(=O)[O-])CCCCC1 [Gabapentin] | 99.5 | 98.3 | 20.3 |  |  |  | 10.4 |
| CCC[NH+](CC)CC1COC2(CCC(C(C)(C)C)CC2)O1 (stereo not drawn) [Spiroxamin] | 91.4 | 66.6 | 83 | 102 | 90.3 | 71.8 | 16.9 |
| CON=C(C1=NOCCO1)c1ccccc1Oc1ncnc(Oc2ccccc2Cl)c1F [Fluoxastrobin] | 94.1 | 112 | 97.5 | 80.2 | 90.4 | 83 | 19.8 |
| O=P1(N(CCCl)CCCl)NCCCO1 (stereo not drawn) [Cyclophosphamid] | 104 | 100 | 98.1 | 96.4 | 93.9 | 94.5 | 16.1 |
| Cc1cc(C)nc(Nc2ccccc2)n1 [Pyrimethanil] | 88.8 | 86.4 | 89.2 | 91.1 | 91.4 | 90.3 | 18.3 |
| c1ccc2c(c1)Cc1ccccc1N1CC[NH2+]CC21 (stereo not drawn) [Normianserin] | 94.1 | 84.1 | 79.1 | 95.2 | 83.6 | 85.6 | 14.8 |
| COP(=O)(OC)SCn1c(=O)oc2cc(Cl)cnc21 [Azamethiphos] | 82.9 | 67 | 65.5 | 65.7 | 65.1 | 50.5 | 16.6 |
| CCCCCCCCCCCCCC[N+](C)(C)CCCCCCCCCCCCCC [Dimethylditetradecylammonium (=ATMAC-18)] | 119 | 4.7 |  |  | 55.3 | 38.7 | 21.6 |
| CC1(C)CCC(Cc2ccc(Cl)cc2)C1(O)Cn1cncn1 (stereo not drawn) [Metconazole] | 100 | 105 | 95.9 | 108 | 94.9 | 80.9 | 21.3 |
| CC(C)CC(C)(O)C#CC(C)(O)CC(C)C (stereo not drawn) [Surfynol-104A] | 75.3 | 70.8 | 86.2 |  | 73.8 | 143 | 20.9 |
| CCCCCCCCn1sc(Cl)c(Cl)c1=O [4-5-Dichloro-2-n-octyl-isothiazol-3(2H)-on (=DCOIT)] | 19.3 |  | 93 | 62.5 | 66.5 | 60.8 | 22.7 |
| CCCCCCCCn1sccc1=O [2-n-Octyl-4-isothiazolin-3-on (=OIT)] | 97.9 | 45.2 | 93 | 91.6 | 91.8 | 90.7 | 20.3 |
| C#CC(C)(C)NC(=O)c1cc(Cl)cc(Cl)c1 [Propyzamide] | 82 | 88.4 | 97.1 | 88.9 | 87.8 | 101 | 20 |
| c1ccc(CN2CC[NH2+]CC2)cc1 [1-Benzylpiperazin] | 109 | 140 | 58.2 | 60.9 | 56.2 | 72.5 | 6.45 |
| CCN(C)C(=O)Oc1cccc(C(C)[NH+](C)C)c1 (stereo not drawn) [Rivastigmin] | 102 | 105 | 90.4 | 94.7 | 90.6 | 98.8 | 12.2 |
| CCC1OC(=O)C(C)C(OC2CC(C)(OC)C(O)C(C)O2)C(C)C(OC2OC(C)CC([NH+](C)C)C2O)C(C)(O)CC(C)C(=O)C(C)C(O)C1(C)O (stereo not drawn) [Erythromycin] | 113 |  | 50.1 | 69.3 | 78.3 | 83.3 | 16.9 |
| Cc1nc(N(C)C)nc(OC(=O)N(C)C)c1C [Pirimicarb] | 102 | 98.7 | 99.4 | 94.3 | 93.5 | 94.1 | 14.1 |
| C[NH2+]C(C)Cc1ccccc1 (stereo not drawn) [Methamphetamin] | 100 | 91.3 | 92.5 | 86.6 | 89.3 | 92.5 | 10.6 |
| CCS(=O)(=O)c1nc2ccccn2c1S(=O)(=O)[N-]C(=O)Nc1nc(OC)cc(OC)n1 [Sulfosulfuron] | 108 | 98.9 | 101 | 94.4 | 94.6 | 102 | 19.4 |
| N#Cc1cc(I)c([O-])c(I)c1 [Ioxynil] | 106 | 111 | 103 | 102 | 99.4 | 96.2 | 19.3 |
| Cc1ncc([N+](=O)[O-])n1CCO [Metronidazol] | 102 | 102 | 95.6 | 91.3 | 87.1 | 95.9 | 10 |
| CC[NH+](CC)CC#CCOC(=O)C(O)(c1ccccc1)C1CCCCC1 (stereo not drawn) [Oxybutynin] | 90.1 | 136 | 92.8 | 75.1 | 89.1 |  | 16.2 |
